Data reported in PubChem BioAssay AID1845200 (Molecular Pharmacology Branch, DTP, NCI, 2023).

System: ASPS-1 complex tumor spheroids, viability
Experiment: Anticancer human tumor ASPS-1 cell line growth inhibition;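 note: spheroids exposed to agents for 7 days after 3 days of growth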;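 for viability, T/C: 100% = DMSO vehicle treated spheroids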
Conditions: for IC50: curve of first compound; for viability, T/C: stronger effect = lower value
Source text: Multicellular complex tumor spheroid response to DNA repair inhibitors in combination with DNA-damaging drugs
This study explores the anticancer activities of DNA-damaging drugs and inhibitors of DNA damage repair, both as single agents and in combinations. Complex tumor spheroids comprised of malignant cells, endothelial cells and mesenchymal stem cells served as an in vitro model for human solid tumors. This model system incorporates physiologically relevant features and patient-derived or established malignant cell lines with clinically relevant genetic alterations from many tumor types. Twenty-six patient-derived or established malignant cell lines were evaluated representing sarcoma, melanoma, small cell lung cancer (SCLC), non-small cell lung cancer (NSCLC), as well as bladder, ovarian and pancreatic cancers. The concentration ranges selected for each drug and investigational agent were based upon clinically achievable concentrations if the clinical Cmax of the agent was known.
Compounds. The drugs and compounds olaparib (NSC753686), talazoparib (NSC767125), berzosertib (NSC777718), elimusertib (NSC800525), nedisertib (NSC802822), VX-984 (NSC792969), AZD-1390 (NSC803789), temozolomide (NSC362856), topotecan (NSC609699), trabectedin (NSC813783), staurosporine (NSC755774), and gemcitabine (NSC613327) were obtained from the National Cancer Institute (NCI) Developmental Therapeutics Program Chemical Repository. The FDA-approved anticancer drug set is available from the Developmental Therapeutics Program at https://dtp.cancer.gov/organization/dscb/obtaining/available_plates.htm. […] The stock solutions were prepared in dimethyl sulfoxide (DMSO, Sigma-Aldrich, St. Louis, MO, cat. D2650) at 400-fold the tested concentration and stored at -70 degrees C. Prior to their use, the stock solutions were diluted in fresh medium and the final DMSO concentration in the assay was 0.25% (v/v). All drugs and investigational agents were tested over a range starting from a high concentration at or near the clinical Cmax and decreasing in half-log increments. If the clinical Cmax for an agent had not been determined, the highest concentration tested was 10 microM.
Cell Lines. The patient-derived cancer cell (PDC) lines: 156681-154-R-J1-PDC, 283228-195-R-J1-PDC, 287954-098-R-J1-PDC, 292921-168-R-J2-PDC, 349418-098-R-PDC, 425362-245-T-J1-PDC, 556581-035-R-J1-PDC, and BL0293-F563-PDC were received from the NCI Patient-Derived Models Repository (PDMR, https://pdmr.cancer.gov). The established cell lines HS-SY-2 (RRID:CVCL_8719), MPNST, and SYO-1 (RRID:CVCL_7146) were obtained from the Sloan Kettering Institute. The alveolar soft parts sarcoma cell line ASPS-1 (RRID:CVCL_S738) was established at the NCI and grown from internal seed stocks. The following established cell lines were purchased from the American Type Culture Collection (ATCC, Manassas, VA): G-401 (ATCC, cat. CRL-1441, RRID:CVCL_0270), SW982 (ATCC, cat. HTB-93, RRID:CVCL_1734), VA-ES-BJ (ATCC, cat. CRL-2138, RRID:CVCL_1785), NCI-H719 (ATCC, cat. CRL-5837, RRID:CVCL_1582), NCI-H196 (ATCC, cat. CRL-5823, RRID:CVCL_1509), NCI-H841 (ATCC, cat. CRL-5845, RRID:CVCL_1595), NCI-H1618 (ATCC, cat. CRL-5879, RRID:CVCL_1480), NCI-H1876 (ATCC, cat. CRL-5902, RRID:CVCL_1503), DMS 114 (ATCC, cat. CRL-2066; RRID:CVCL_1174), NCI-H211 (ATCC, cat. CRL-5824; RRID:CVCL_1529), and SW 1271 (ATCC, cat. CRL-2177, RRID:CVCL_1716). The small cell lung cancer cell line COR-L88 was purchased from Sigma-Aldrich (cat. 92031917-1VL, RRID:CVCL_1141). The non-small cell lung cancer cell lines NCI-H226 (RRID:CVCL_1544) and NCI-H322M (RRID:CVCL_1557) were established at the NCI and grown from internal seed stocks. Pooled donor human umbilical vein endothelial cells (HUVEC, Lonza, cat. CC-2519) and human mesenchymal stem cells (hMSC, Lonza, cat. PT-2501) were purchased from Lonza (Walkersville, MD).
Cell Culture. All cells were maintained in an incubator at 37 degrees C and 5% CO2 with 95% humidity. […]

[1] = second compound 0.003 µM, first compound 0.0316 µM
[2] = second compound 0.003 µM, first compound 0.1 µM
[3] = second compound 0.003 µM, first compound 0.316 µM
[4] = second compound 0.003 µM, first compound 1 µM
[5] = second compound 0.003 µM, first compound 3.16 µM
[6] = second compound 0.003 µM, first compound 10 µM
[7] = second compound 0.00949 µM, first compound 0.0316 µM
[8] = second compound 0.00949 µM, first compound 0.1 µM
[9] = second compound 0.00949 µM, first compound 0.316 µM
[10] = second compound 0.00949 µM, first compound 1 µM
[11] = second compound 0.00949 µM, first compound 3.16 µM
[12] = second compound 0.00949 µM, first compound 10 µM
[13] = second compound 0.03 µM, first compound 0.0316 µM
[14] = second compound 0.03 µM, first compound 0.1 µM
[15] = second compound 0.03 µM, first compound 0.316 µM
[16] = second compound 0.03 µM, first compound 1 µM
[17] = second compound 0.03 µM, first compound 3.16 µM
[18] = second compound 0.03 µM, first compound 10 µM
[19] = second compound 0.0949 µM, first compound 0.0316 µM
[20] = second compound 0.0949 µM, first compound 0.1 µM
[21] = second compound 0.0949 µM, first compound 0.316 µM
[22] = second compound 0.0949 µM, first compound 1 µM
[23] = second compound 0.0949 µM, first compound 3.16 µM
[24] = second compound 0.0949 µM, first compound 10 µM
[25] = second compound 0.3 µM, first compound 0.0316 µM
[26] = second compound 0.3 µM, first compound 0.1 µM
[27] = second compound 0.3 µM, first compound 0.316 µM
[28] = second compound 0.3 µM, first compound 1 µM
[29] = second compound 0.3 µM, first compound 3.16 µM
[30] = second compound 0.3 µM, first compound 10 µM

| Compound | IC50 (second compound 0.003 µM) [µM] | IC50 (second compound 0.00949 µM) [µM] | IC50 (second compound 0.03 µM) [µM] | IC50 (second compound 0.0949 µM) [µM] | IC50 (second compound 0.3 µM) [µM] | viability, T/C [1] [%] | viability, T/C [2] [%] | viability, T/C [3] [%] | viability, T/C [4] [%] | viability, T/C [5] [%] | viability, T/C [6] [%] | viability, T/C [7] [%] | viability, T/C [8] [%] | viability, T/C [9] [%] | viability, T/C [10] [%] | viability, T/C [11] [%] | viability, T/C [12] [%] | viability, T/C [13] [%] | viability, T/C [14] [%] | viability, T/C [15] [%] | also measured |
| --- | --- | --- | --- | --- | --- | --- | --- | --- | --- | --- | --- | --- | --- | --- | --- | --- | --- | --- | --- | --- | --- |
| CC1COCCN1c1cc(-c2ccnn2C)c2ccnc(-c3ccn[nH]3)c2n1 (stereo not given) + CC[C@@]1(O)C(=O)OCc2c1cc1n(c2=O)Cc2cc3c(CN(C)C)c(O)ccc3nc2-1 | 0.224 | 0.0608 | < 0.0316 | < 0.0316 | < 0.0316 | 73.9 | 59.1 | 46.2 | 44.5 | 47.8 | 43.5 | 56.9 | 48.7 | 39.9 | 40.1 | 46.8 | 42.3 | 38.7 | 35.1 | 35.8 | viability, T/C [16]: 39.6%; viability, T/C [17]: 42.1%; viability, T/C [18]: 42.5%; viability, T/C [19]: 26.7%; viability, T/C [20]: 26.5%; viability, T/C [21]: 28.7%; viability, T/C [22]: 34.1%; viability, T/C [23]: 41.9%; viability, T/C [24]: 36.4%; viability, T/C [25]: 23.3%; viability, T/C [26]: 23.2%; viability, T/C [27]: 23.5%; viability, T/C [28]: 33.8%; viability, T/C [29]: 44.6%; viability, T/C [30]: 38.6% |
| COc1cc(C)[nH]c(=O)c1CN1CCc2c(Cl)cc(C(OC)C3COC3)c(Cl)c2C1=O (stereo not given) + CC[C@@]1(O)C(=O)OCc2c1cc1n(c2=O)Cc2cc3c(CN(C)C)c(O)ccc3nc2-1 | > 10 | > 10 | > 10 | > 10 | > 10 | 107 | 111 | 99.3 | 98.7 | 99.9 | 101 | 112 | 110 | 107 | 98.9 | 98.9 | 98.8 | 84.6 | 89.1 | 88.8 | viability, T/C [16]: 87.2%; viability, T/C [17]: 91.3%; viability, T/C [18]: 82.8%; viability, T/C [19]: 61.8%; viability, T/C [20]: 61.7%; viability, T/C [21]: 60.2%; viability, T/C [22]: 62.7%; viability, T/C [23]: 58.4%; viability, T/C [24]: 59.3%; viability, T/C [25]: 69.7%; viability, T/C [26]: 64.8%; viability, T/C [27]: 69.2%; viability, T/C [28]: 64.9%; viability, T/C [29]: 64.2%; viability, T/C [30]: 65.7% |
| Cc1cc(C)c(CNC(=O)c2cc(-c3ccc(CN4CCOCC4)cc3)cc3c2cnn3C2CCCC2)c(=O)[nH]1 + CC[C@@]1(O)C(=O)OCc2c1cc1n(c2=O)Cc2cc3c(CN(C)C)c(O)ccc3nc2-1 | > 10 | > 10 | > 10 | 0.777 | < 0.0316 | 100 | 106 | 94.2 | 93.7 | 85.2 | 81.2 | 107 | 114 | 107 | 95.2 | 87.2 | 77.8 | 95.8 | 98.7 | 89.9 | viability, T/C [16]: 79.9%; viability, T/C [17]: 66%; viability, T/C [18]: 74%; viability, T/C [19]: 59%; viability, T/C [20]: 55.3%; viability, T/C [21]: 52.3%; viability, T/C [22]: 46.2%; viability, T/C [23]: 46.5%; viability, T/C [24]: 52.8%; viability, T/C [25]: 49.5%; viability, T/C [26]: 47%; viability, T/C [27]: 44.4%; viability, T/C [28]: 45.6%; viability, T/C [29]: 46.4%; viability, T/C [30]: 56.9% |
| [2H]c1nc(C)nc([2H])c1-c1cc(NC[C@@H](C)c2cccc3c(C(=O)NC)ccnc23)ncn1 + CC[C@@]1(O)C(=O)OCc2c1cc1n(c2=O)Cc2cc3c(CN(C)C)c(O)ccc3nc2-1 | > 10 | > 10 | > 10 | > 10 | > 10 | 111 | 113 | 110 | 107 | 107 | 104 | 112 | 106 | 107 | 108 | 97.8 | 100 | 103 | 101 | 97.8 | viability, T/C [16]: 91.3%; viability, T/C [17]: 94.6%; viability, T/C [18]: 97.4%; viability, T/C [19]: 67.8%; viability, T/C [20]: 75.8%; viability, T/C [21]: 67.8%; viability, T/C [22]: 66.2%; viability, T/C [23]: 68%; viability, T/C [24]: 68.4%; viability, T/C [25]: 80.2%; viability, T/C [26]: 72.8%; viability, T/C [27]: 77.1%; viability, T/C [28]: 71.4%; viability, T/C [29]: 74.8%; viability, T/C [30]: 66.6% |
